According to patent publication US20100299778A1, “NUCLEOTIDE SEQUENCE ENCODING ARTEMISINIC ALDEHYDE DOUBLE BOND REDUCTASE, ARTEMISINIC ALDEHYDE DOUBLE BOND REDUCTASE AND USES THEREOF” (National Research Council of Canada, priority 2007, published 2010):
“Also recorded” adds a separate entry of the source.

Tests used:
[1] = biological target: T1, recombinant AaDBR2 (artemisinic aldehyde double bond reductase) (Artemisia annua, UniProt C5H429, A226G/L231G/N16K); assay: In vitro enzyme assays of recombinant AaDBR2 with potential substrates, GC/MS analysis; assay type: biochemical; settings: for activity of AaDBR2 on the substance as substrate: tested as potential substrate, with NADPH, GC/MS
T1 construct: This ORF encodes a 415-amino acid protein with a predicted molecular mass of 45.6 kDa; made in house; host or cells: E. coli Rosetta 2(DE3)
Experimental: The purified recombinant His-tagged AaDBR2 protein was assayed with artemisinic aldehyde, followed by gas chromatography/mass spectrometry analysis. Enzyme reactions were initiated by adding the 0.4 mM artemisinic aldehyde to 300 μL reaction mixture containing 50 mM Tris-HCl (pH 8.0), 1 mM NADPH, 2 mM DTT and 2.0 μg of AaDBR2. Negative controls were carried out with boiled proteins, without NADPH. Reactions were allowed to proceed for 30 minutes at 30° C. with shaking, stopped by adding 15 μL acetic acid and extracted with 100 μL ethyl acetate. The ethyl acetate extracts were pooled and partially evaporated prior to GC-MS analysis. The reaction products were confirmed by comparing GC retention time and MS data with those of synthetic (11R)-dihydroartemisinic aldehyde. For quantification, octadecane was used as an internal standard.
(§1) For comparison of the catalytic properties of AaDBR2 against other substrates, reaction mixtures were pre-warmed to 30° C., and reactions were initiated by addition of AaDBR2. The pH optimum of the purified AaDBR2 was determined to be 7.5 in assay that included one of three 50 mM buffers (MES, HEPES, and Tris-HCl) adjusted to between pH 5.5 and 9.0 in 0.5-unit intervals and 0.5 mM artemisinic aldehyde and 0.48 μg of purified recombinant AaDBR2. Apparent kinetic parameters were determined under conditions that limited conversion to less than 10% as follows. Concentrations of artemisinic aldehyde (6-250 μM, 0.24 μg of AaDBR2, 2 min), 2-cyclohexen-1-one (80-10,000 μM, 0.48 μg of AaDBR2, 10 min), and (+)-carvone (20-5000 μM, 0.48 μg AaDBR2, 10 min) were varied in the presence of 1 mM NADPH. To assess cofactor specificity, concentrations of NADPH (10-640 μM, 0.48 μg of AaDBR2, 2 min) and NADH (0.2-13 mM, 1.9 μg of AaDBR2, 2 min) were varied in the presence of 0.5 mM artemisinic aldehyde. The ethyl acetate extracts from triplicate reaction mixtures were directly analyzed by GC/MS. Octadecane was used as an internal standard to quantify the products formed from the reactions using response factors determined using standards for each enzyme product. Km and kcat values were determined by nonlinear regression analysis using GraphPad™ software (GraphPad™ Software Inc., San Diego, Calif.).

[2] = biological target: T1, recombinant AaDBR2 (artemisinic aldehyde double bond reductase); assay: Apparent kinetic parameters of purified recombinant AaDBR2; assay type: biochemical
Experimental: as §1

[3] = tested on: Plasmodium falciparum; settings: more active than artesunate; cited from earlier work
[4] = substrate varied in the presence of 1 mM NADPH, 30° C.
[5] = cofactor varied in the presence of 0.5 mM artemisinic aldehyde

T1 sequence (C5H429 other isoform, or with tags, fused parts or gaps N16K/A226G/L231G): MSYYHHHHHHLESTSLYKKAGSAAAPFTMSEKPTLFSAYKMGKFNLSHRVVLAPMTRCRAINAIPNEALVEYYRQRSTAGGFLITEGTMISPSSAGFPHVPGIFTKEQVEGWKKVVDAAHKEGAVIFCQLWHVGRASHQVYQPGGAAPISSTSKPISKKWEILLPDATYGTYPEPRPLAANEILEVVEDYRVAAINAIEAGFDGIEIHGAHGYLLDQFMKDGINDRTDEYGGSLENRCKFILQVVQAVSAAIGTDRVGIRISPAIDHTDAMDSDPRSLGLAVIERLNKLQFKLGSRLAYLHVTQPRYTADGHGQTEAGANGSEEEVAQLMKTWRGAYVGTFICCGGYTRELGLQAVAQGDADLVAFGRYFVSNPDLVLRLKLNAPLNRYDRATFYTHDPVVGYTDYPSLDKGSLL

| SMILES | activity of AaDBR2 on the substance as substrate [1] | further results |
| --- | --- | --- |
| O=C1C=CCCC1 [2-cyclohexen-1-one] | has activity | – |
| CCCCCC/C=C/C=O [2E-nonenal] | low activity; also recorded: No activity was detected | rate relative to the rate for artemisinic aldehyde ([1]; AaDBR2 substrate, FIG. 8): about 12% |
| C=C(C)[C@H]1CC=C(C)C(=O)C1 [(+)-carvone, (+)-Carvone] | has activity | Km [2, 4]: 650 µM; kcat [2, 4]: 0.86 s⁻¹ |
| CC(C)=C1CC[C@@H](C)CC1=O [(+)-pulegone] | No activity was detected | – |
| CC1=CC[C@@H]2C[C@H]1C2(C)C [(+)-α-pinene] | No activity was detected | – |
| C[C@H]1[C@H](N2CCS(=O)(=O)CC2)O[C@@H]2O[C@@]3(C)CC[C@H]4[C@H](C)CC[C@@H]1[C@@]24OO3 [Artemisone] | – | activity relative to artesunate [3]: 10-30 fold |
| NC(=O)C1=CN([C@@H]2O[C@H](COP(=O)(O)OP(=O)(O)OC[C@H]3O[C@@H](n4cnc5c(N)ncnc54)[C@H](O)[C@@H]3O)[C@@H](O)[C@H]2O)C=CC1 [NADH] | – | enzyme activity in the presence of the cofactor ([1]; preliminary experiments): active; Km [2, 5]: 770 µM; kcat [2, 5]: 1.3 s⁻¹ |
| NC(=O)C1=CN([C@@H]2O[C@H](COP(=O)(O)OP(=O)(O)OC[C@H]3O[C@@H](n4cnc5c(N)ncnc54)[C@H](OP(=O)(O)O)[C@@H]3O)[C@@H](O)[C@H]2O)C=CC1 [NADPH] | – | Km [2, 5]: 95 µM; kcat [2, 5]: 2.5 s⁻¹ |
| C=C1C(=O)O[C@@]23[C@H]1CC[C@@H](C)[C@@H]2CC[C@@]1(C)O[C@@H]31 [arteannuin B, Arteannuin B] | No activity was detected | – |
| C=C(C(=O)O)[C@@H]1CC[C@@H](C)[C@@H]2CCC(C)=C[C@@H]21 [artemisinic acid] | No activity was detected | – |
| C=C(CO)[C@@H]1CC[C@@H](C)[C@@H]2CCC(C)=C[C@@H]21 [artemisinic alcohol, Artemisinic alcohol] | No activity was detected | – |
| C=C(C=O)[C@@H]1CC[C@@H](C)[C@@H]2CCC(C)=C[C@@H]21 [artemisinic aldehyde] | has activity | Km lower relative to 2-cyclohexen-1-one and (+)-carvone ([2]; Table 2 comparison): more than 30 fold; Km [2, 4]: 19 µM; kcat [2, 4]: 2.6 s⁻¹ |
| C=C1C(=O)O[C@@H]2O[C@@]3(C)CC[C@H]4[C@H](C)CC[C@@H]1[C@@]24OO3 [artemisitene] | No activity was detected | – |
| COc1cc(/C=C/C=O)ccc1O [coniferyl aldehyde] | No activity was detected | – |
| C=C1C(=O)CC2(C(C)C)CC12 (stereo not drawn) [sabinone, Sabinone] | No activity was detected | – |
